In patent US9187450B2, “Substituted pyridine compound” (Daiichi Sankyo Company, Limited, priority 2010, dated 2015):

Target: recombinant human CETP protein (Homo sapiens (Human), UniProt P11597)
Test: Test of CETP inhibition activity (in vitro, buffer-based)
Assay type: biochemical
Conditions: reconstituted HDL with [14C]-labeled cholesteryl ester, acceptor lipoprotein, 37° C.
Description: Test of CETP Inhibition Activity (In Vitro, Buffer-Based)
(1) Preparation of Reconstituted HDL
Cholesterol (1.125 μmol), phosphatidyl choline (4.5 μmol) and [^14C]-labeled cholesteryl ester (2.0 μCi; 40 μl) were taken in a glass test tube and well mixed with a vortex, and dried under a nitrogen gas current so that it formed a thin film. The obtained mixture was dissolved in ethanol (200 μl), which was designated as Solution A. A PBS solution [a mixed solution of Na2HPO4 (30 mM), KH2PO4 (8.8 mM), NaCl (60 mM) and EDTA (pH 7.4; 0.67 mM); 4 ml] was taken in a tube and the reaction solution was vigorously stirred with a vortex under a nitrogen current. The above-described Solution A was gently injected into this mixture with a syringe and the reaction solution was vigorously stirred with a vortex for 5 minutes under a nitrogen current. Sodium cholate ([…]; 0.38 ml) was added to the obtained mixture and the reaction solution was stirred for 2 minutes. ApoA-I protein (3 mg) was added to the obtained mixture and the reaction solution was stirred for 2 minutes. The obtained mixture was adjusted to 5 ml with the PBS solution and then dialyzed with the PBS solution. The obtained mixture was designated as the reconstituted HDL.
(2) Preparation of Acceptor Lipoprotein
NaBr was added to the plasma of a healthy person and the density of the mixture was adjusted to 1.019, and the mixture was subjected to density gradient centrifugation (40000 rpm, for 16 hours) to remove the fraction having a density of less than 1.019. NaBr was added to the obtained mixture and the density of the solution was adjusted to 1.063, and the solution was subjected to density gradient centrifugation (40000 rpm, 18 hours) to provide the fraction consisting of IDL (intermediate density lipoprotein) and LDL (1.019<density<1.063). The obtained fraction was dialyzed with the PBS solution. The obtained mixture was designated as the acceptor lipoprotein.
(3) Measurement of CETP Inhibition Activity
A recombinant human CETP protein (manufactured by Roar Biomedical Inc.; 4.5 ng), the acceptor lipoprotein described in (2) above (32.5 μg) and 5,5′-dithio-bis-(2-nitrobenzoic acid) (7 mM, 15 μl) were taken in a 96 well plate and the total amount of the mixture was adjusted to 48.5 μl with the PBS solution. The test compound [DMSO solution (concentration: 0.15, 0.5, 1.5, 5, 15, 50, 150 and 500 μM; 1.5 μl] was added to each well and the mixture was incubated in a thermostatic bath at 37° C. for 60 minutes. The reconstituted HDL (50 μl) described in (1) above was added to each well and the mixture was reacted in a thermostatic bath at 37° C. for 60 minutes. The 96 well plate was moved onto ice and a precipitation reagent [a mixed solution of magnesium chloride (60 mM) and 0.1% dextran sulfate [1/1 (v/v)]; 15 μl] was added to each well, and then the mixture was allowed to stand on ice for 15 minutes. The reaction solution (80 μl) in each well was moved to a filter plate and centrifuged at 1500 rpm for 1 minute, and the filtrate which passed through the filter was designated as the HDL fraction and the radioactivity thereof was measured with a scintillation counter. The percentage decrease in radioactivity in the case where the test compound was added in comparison with that in case where the test compound was not added was designated as the percentage CETP inhibition. The IC50 value was calculated from the percentage CETP inhibition.

Chain of recombinant human CETP protein (P11597 18-493): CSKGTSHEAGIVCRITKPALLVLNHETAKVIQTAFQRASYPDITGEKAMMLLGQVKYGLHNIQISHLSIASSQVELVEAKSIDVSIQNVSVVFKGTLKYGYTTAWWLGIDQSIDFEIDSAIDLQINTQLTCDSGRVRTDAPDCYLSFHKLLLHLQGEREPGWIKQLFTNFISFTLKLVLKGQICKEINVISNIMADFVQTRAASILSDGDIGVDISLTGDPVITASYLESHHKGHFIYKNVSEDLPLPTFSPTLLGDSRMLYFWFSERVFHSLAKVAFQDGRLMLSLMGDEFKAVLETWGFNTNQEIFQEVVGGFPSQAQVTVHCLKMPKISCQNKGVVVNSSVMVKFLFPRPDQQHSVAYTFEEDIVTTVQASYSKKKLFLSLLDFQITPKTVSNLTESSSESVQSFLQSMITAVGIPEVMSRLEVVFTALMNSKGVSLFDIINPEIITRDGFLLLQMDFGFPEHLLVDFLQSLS

| Compound | IC50 [nM] |
| --- | --- |
| CC(C)COc1cnc(N2CCC(c3nc4c(c(C5CCC(F)(F)CC5)c3[C@@H](F)c3ccc(C(F)(F)F)cc3)[C@@H](O)CC(C)(C)C4)CC2)nc1 (single isomer, unassigned) [Example 21, (−)-4-(4,4-difluorocyclohexyl)-3-{fluoro[4-(trifluoromethyl)phenyl]methyl}-7,7-dimethyl-2-{1-[5-(2-methylpropoxy)pyrimidine-2-yl]piperidin-4-yl}-5,6,7,8-tetrahydroquinoline-5-ol] | 99 |
| CC1(C)Cc2nc(C3CCN(c4ncc(N5CCCCC5)cn4)CC3)c([C@@H](F)c3ccc(C(F)(F)F)cc3)c(C3CCC(F)(F)CC3)c2[C@@H](O)C1 (single isomer, unassigned) [Example 6, (−)-4-(4,4-Difluorocyclohexyl)-3-{fluoro[4-(trifluoromethyl)phenyl]methyl}-7,7-dimethyl-2-{1-[5-(piperidin-1-yl)pyrimidin-2-yl]piperidin-4-yl}-5,6,7,8-tetrahydroquinolin-5-ol] | 66 |
| CC(C)(O)COc1cnc(N2CCC(c3nc4c(c(C5CCC(F)(F)CC5)c3[C@@H](F)c3ccc(C(F)(F)F)cc3)[C@@H](O)CC(C)(C)C4)CC2)nc1 (stereo in doubt) [Example 44, 4-(4,4-Difluorocyclohexyl)-3-{fluoro[4-(trifluoromethyl)phenyl]methyl}-2-{1-[5-(2-hydroxy-2-methylpropoxy)pyrimidin-2-yl]piperidin-4-yl}-7,7-dimethyl-5,6,7,8-tetrahydroquinolin-5-ol] | 21 |
| CC1(C)Cc2nc(C3CCN(c4ncc(C5=CCCCC5)cn4)CC3)c([C@@H](F)c3ccc(C(F)(F)F)cc3)c(C3CCC(F)(F)CC3)c2[C@@H](O)C1 (single isomer, unassigned) [Example 18, (−)-2-{1-[5-(Cyclohex-1-ene-1-yl)pyrimidin-2-yl]piperidin-4-yl}-4-(4,4-difluorocyclohexyl)-3-{fluoro[4-(trifluoromethyl)phenyl]methyl}-7,7-dimethyl-5,6,7,8-tetrahydroquinolin-5-ol] | 177 |
| CC1(C)Cc2nc(C3CCN(c4ncc(CCCCC(=O)O)cn4)CC3)c([C@@H](F)c3ccc(C(F)(F)F)cc3)c(C3CCC(F)(F)CC3)c2[C@@H](O)C1 (single isomer, unassigned) [Example 25, (−)-2-{1-[5-(4-carboxybutyl)pyrimidine-2-yl]piperidin-4-yl}-4-(4,4-difluorocyclohexyl)-3-{fluoro[4-(trifluoromethyl)phenyl]methyl}-7,7-dimethyl-5,6,7,8-tetrahydroquinoline-5-ol] | 19 |
| CC1(C)Cc2nc(C3CCN(c4ncccn4)CC3)c([C@@H](F)c3ccc(C(F)(F)F)cc3)c(C3CCC(F)(F)CC3)c2[C@@H](O)C1 (single isomer, unassigned) [Example 1, (−)-4-(4,4-Difluorocyclohexyl)-3-{fluoro[4-(trifluoromethyl)phenyl]methyl}-7,7-dimethyl-2-[1-(pyrimidin-2-yl)-piperidin-4-yl]-5,6,7,8-tetrahydroquinolin-5-ol] | 83 |
| CC1(C)Cc2nc(C3CCN(c4ncc(C(=O)N5CCOCC5)cn4)CC3)c([C@@H](F)c3ccc(C(F)(F)F)cc3)c(C3CCC(F)(F)CC3)c2[C@@H](O)C1 (single isomer, unassigned) [Example 32, 4-(4,4-Difluorocyclohexyl)-3-{fluoro[4-(trifluoromethyl)phenyl]methyl}-7,7-dimethyl-2-{1-[5-(morpholin-4-yl-carbonyl)pyrimidin-2-yl]piperidin-4-yl}-5,6,7,8-tetrahydroquinolin-5-ol] | 19 |
| CN(CCO)Cc1cnc(N2CCC(c3nc4c(c(C5CCC(F)(F)CC5)c3[C@@H](F)c3ccc(C(F)(F)F)cc3)[C@@H](O)CC(C)(C)C4)CC2)nc1 (single isomer, unassigned) [Example 36, (−)-4-(4,4-difluorocyclohexyl)-3-{fluoro[4-(trifluoromethyl)phenyl]methyl}-2-{1-(5-{[(2-hydroxyethyl)(methyl)amino]methyl}pyrimidine-2-yl)piperidin-4-yl}-7,7-dimethyl-5,6,7,8-tetrahydroquinoline-5-ol] | 35 |
| CCOCc1cnc(N2CCC(c3nc4c(c(C5CCC(F)(F)CC5)c3[C@@H](F)c3ccc(C(F)(F)F)cc3)[C@@H](O)CC(C)(C)C4)CC2)nc1 (single isomer, unassigned) [Example 26, (−)-4-(4,4-Difluorocyclohexyl)-2-{1-[5-(ethoxymethyl)pyrimidin-2-yl]piperidin-4-yl}-3-{fluoro[4-(trifluoromethyl)phenyl]methyl}-7,7-dimethyl-5,6,7,8-tetrahydroquinolin-5-ol] | 45 |

Next, values leading:

| IC50 [nM] | Compound |
| --- | --- |
| 42 | CC1(C)Cc2nc(C3CCN(c4ncc(OC(F)F)cn4)CC3)c([C@@H](F)c3ccc(C(F)(F)F)cc3)c(C3CCC(F)(F)CC3)c2[C@@H](O)C1 (single isomer, unassigned) [Example 48, (−)-4-(4,4-Difluorocyclohexyl)-2-{1-[5-(difluoromethoxy)pyrimidin-2-yl]piperidin-4-yl}-3-{fluoro[4-(trifluoromethyl)phenyl]methyl}-7,7-dimethyl-5,6,7,8-tetrahydroquinolin-5-ol] |
| 6 | CN(Cc1cnc(N2CCC(c3nc4c(c(C5CCC(F)(F)CC5)c3[C@@H](F)c3ccc(C(F)(F)F)cc3)[C@@H](O)CC(C)(C)C4)CC2)nc1)S(C)(=O)=O (single isomer, unassigned) [Example 51, (−)-4-(4,4-Difluorocyclohexyl)-3-{fluoro[4-(trifluoromethyl)phenyl]methyl}-7,7-dimethyl-2-[1-(5-{[methyl(methylsulphonyl)amino]methyl}pyrimidin-2-yl)piperidin-4-yl]-5,6,7,8-tetrahydroquinolin-5-ol] |
| 13 | CC1(C)Cc2nc(C3CCN(c4ncc(OCCCS(C)(=O)=O)cn4)CC3)c([C@@H](F)c3ccc(C(F)(F)F)cc3)c(C3CCC(F)(F)CC3)c2[C@@H](O)C1 (single isomer, unassigned) [Example 45, (−)-4-(4,4-Difluorocyclohexyl)-3-{fluoro[4-(trifluoromethyl)phenyl]methyl}-7,7-dimethyl-2-(1-{5-[3-(methylsulphonyl)propoxy]pyrimidin-2-yl}piperidin-4-yl)-5,6,7,8-tetrahydroquinolin-5-ol] |
| 59 | CC1(C)Cc2nc(C3CCN(c4ncc(-c5cccc(C(=O)O)c5)cn4)CC3)c([C@@H](F)c3ccc(C(F)(F)F)cc3)c(C3CCC(F)(F)CC3)c2[C@@H](O)C1 [Example 55, (−)-2-{1-[5-(3-Carboxyphenyl)pyrimidin-2-yl]piperidin-4-yl}-4-(4,4-difluorocyclohexyl)-3-{fluoro[4-(trifluoromethyl)phenyl]methyl}-7,7-dimethyl-5,6,7,8-tetrahydroquinolin-5-ol] |
| 34 | CSc1cnc(N2CCC(c3nc4c(c(C5CCC(F)(F)CC5)c3[C@@H](F)c3ccc(C(F)(F)F)cc3)[C@@H](O)CC(C)(C)C4)CC2)nc1 (single isomer, unassigned) [Example 53, (−)-4-(4,4-Difluorocyclohexyl)-3-{fluoro[4-(trifluoromethyl)phenyl]methyl}-7,7-dimethyl-2-[1-(5-methylthiopyrimidin-2-yl)-piperidin-4-yl]-5,6,7,8-tetrahydroquinolin-5-ol] |
